For assay [1], the target named is 5-hydroxytryptamine receptor 4 (Mus musculus, UniProt P97288).
The target of assay [2] is 5-hydroxytryptamine receptor 4 (Homo sapiens, UniProt Q13639).

The results in this text go back to BindingDB's records for doi:10.1016/0014-2999(95)00786-5 (Cnrs Upr 9023, 1996).

What is called Ki is a dissociation constant, usually derived from enzyme kinetics or from competition with a known ligand. The low end stands for a stronger hold on the target, the high end for a looser hold on the target.

Values joined by “and” are separate entries in the source; they are usually repeats but may differ in a detail not shown here. Equal entries are not always repeated. Structures can show the parent of a compound that is named as a salt.

Sequence of 5-hydroxytryptamine receptor 4 (Mus musculus, UniProt P97288) (P97288 whole entry): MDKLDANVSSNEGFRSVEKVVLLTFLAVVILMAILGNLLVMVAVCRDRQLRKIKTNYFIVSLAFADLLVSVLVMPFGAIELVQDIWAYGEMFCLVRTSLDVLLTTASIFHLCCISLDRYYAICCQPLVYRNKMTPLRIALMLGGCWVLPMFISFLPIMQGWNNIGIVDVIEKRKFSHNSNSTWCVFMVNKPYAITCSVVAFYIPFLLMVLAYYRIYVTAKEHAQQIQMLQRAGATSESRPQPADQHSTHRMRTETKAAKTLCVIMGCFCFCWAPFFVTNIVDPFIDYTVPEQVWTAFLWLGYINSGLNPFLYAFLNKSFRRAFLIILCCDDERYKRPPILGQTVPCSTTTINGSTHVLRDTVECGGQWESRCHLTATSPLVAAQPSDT
Sequence of 5-hydroxytryptamine receptor 4 (Homo sapiens, UniProt Q13639) (Q13639 whole entry): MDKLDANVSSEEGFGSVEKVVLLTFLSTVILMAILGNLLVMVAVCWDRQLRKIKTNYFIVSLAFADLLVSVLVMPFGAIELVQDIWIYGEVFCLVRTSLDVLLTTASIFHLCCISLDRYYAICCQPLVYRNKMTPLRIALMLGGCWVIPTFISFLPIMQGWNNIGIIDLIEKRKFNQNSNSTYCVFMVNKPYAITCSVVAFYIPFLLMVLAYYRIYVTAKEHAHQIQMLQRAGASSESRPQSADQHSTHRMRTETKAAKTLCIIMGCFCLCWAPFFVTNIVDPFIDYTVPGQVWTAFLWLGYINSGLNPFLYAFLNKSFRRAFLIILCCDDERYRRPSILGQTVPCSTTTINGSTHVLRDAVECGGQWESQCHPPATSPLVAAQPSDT

For `CN1C2CCC1CC(OC(=O)c1c[nH]c3ccccc13)C2` (stereo not drawn), the Ki in assay [1] is 158 nM; in assay [2], 200 nM.
On to `COc1ccc2[nH]cc(C3=CCCNC3)c2c1`, for which the Ki in assay [1] amounted to 603 nM.
For `COc1cc(N)c(Cl)cc1C(=O)NC1CCN(CCCC(=O)N2CCC(N(C)C)CC2)CC1OC` (stereo not drawn) [4-Amino-5-chloro-N-(1-{4-[4-(dimethylamino)-1-piperidinyl]-4-oxobutyl}-3-methoxy-4-piperidinyl)-2-methoxybenzamide], the Ki in assay [1] was found to be 1.38 nM.
Same read-out and setting: in the case of `COc1cc(N)c(Cl)cc1C(=O)NC1CCN(Cc2ccccc2)CC1` [4-Amino-N-(1-benzyl-piperidin-4-yl)-5-chloro-2-methoxy-benzamide(Clebopride)] it was 53.7 nM.
Same read-out and setting: in the case of `COc1cc(N)c(Cl)cc1C(=O)NC1CCN(CCCOc2ccc(F)cc2)CC1OC` (stereo not drawn) [4-amino-5-chloro-N-(1-(3-(4-fluorophenoxy)propyl)-3-methoxypiperidin-4-yl)-2-methoxybenzamide] it was 51.3 nM; in that of `CCN(CC)CCNC(=O)c1cc(Cl)c(N)cc1OC` [4-amino-5-chloro-N-[2-(diethylamino)ethyl]-2-methoxy-benzamide;hydrochloride], 3980 nM; in that of `CCn1c(=O)n(C(=O)NC2CC3CCC(C2)N3C)c2ccccc21` (stereo not drawn) [BIMU 1], 53.7 nM.
As to `CC(C)n1c(=O)n(C(=O)NC2C[C@H]3CC[C@@H](C2)N3C)c2ccccc21` (stereo partly drawn) [BIMU 8], the Ki in assay [1] is 25.1 nM; in assay [2], 79.4 nM.
Take `CN1C2CCC1CC(NC(=O)n1c(=O)[nH]c3ccccc31)C2` (stereo not drawn) [DAU 6215]: the Ki in assay [1] worked out at 224 nM.
With `COc1ccc2[nH]c(=O)n(C(=O)OC3CC4CCC(C3)N4C)c2c1` (stereo not drawn) [DAU 6285], the inhibitory constant (Ki) was determined as 26.9 nM in assay [1] and 63.1 nM in assay [2].
For the compound `Cn1cc(C(=O)OCC2CCN(CCNS(C)(=O)=O)CC2)c2ccccc21` [GR 113808], the Ki in assay [1] stood at 0.31 nM.
Still for that read-out and setting: to `COc1[nH]c2ccc(F)cc2c1C(=O)OCC1CCN(CCNS(C)(=O)=O)CC1` [GR-125487] belongs 0.03 nM; to `COc1cc(N)c(Cl)cc1C(=O)NC1CCN2CCCC1C2` (stereo not drawn) [NSC_3035240], 97.7 nM; to `CCCC[N+]12CCC(C1)C(NC(=O)c1cc(Cl)c(N)cc1OC)CC2` (stereo not drawn) [SB205149], 37.1 nM.
With `CCN(CC)CCOC(=O)c1cc(Cl)c(N)cc1OC` [SDZ-205557], the Ki in assay [1] and in assay [2] was 6.3 nM throughout.
In the case of `COc1cc(N)c(Cl)cc1C(=O)NC1CN2CCC1CC2` (stereo not drawn) [ZACOPRIDE,R], the inhibitory constant (Ki) in assay [1] was 1070 nM and 302 nM and 224 nM.
The same measure, in the same setting: to `NCCc1c[nH]c2ccc(O)cc12` [[3H]-5-HT] belongs 79.4 nM.
As for `COc1ccc2[nH]cc(CCN)c2c1` [tryptamine, 5-Methoxy], the Ki was determined as 525 nM in assay [1] and 501 nM in assay [2].
